Assay results reported in patent publication US20220339124A1 (CADILA HEALTHCARE LIMITED, priority 2019, published 2022).
Where a name gives a salt, the structure may show the parent alone.

How the values were obtained:
[1] = humans, cited from earlier work
[2] = in vivo; conditions: male, Wistar, rat, inhaled or intranasal, mean ± SD, N=4; for half-life: T½
[3] = in vivo; conditions: male, Wistar, rat, plasma
Experimental: A serial blood sampling was performed from each animal. The blood samples were collected at 0.00 (pre-dose), 0.08, 0.25, 0.5, 1, 2, 4, 6, 8, 24 hrs. […] Pharmacokinetic parameters were calculated using the non-compartmental analysis (NCA) module of Phoenix-WinNonlin® software version 6.4.

[4] = in vivo
Experimental: A serial blood sampling was performed from each animal. The blood samples were collected at 0.00 (pre-dose), 0.083, 0.25, 0.5, 1, 2, 4, 6, 8, 24 hrs. […] Pharmacokinetic parameters were calculated using the non-compartmental analysis (NCA) module of Phoenix-WinNonlin® software version 6.4.

[5] = intranasal, 0.05, 0.1 and 0.2 mg/kg, rats
[6] = endocyclic and exocyclic double bonds to epoxides; tertiary amine to N-oxide; cited from earlier work
[7] = in vivo, planned 0.2 mg/kg (actual 0.14 mg/kg)
[8] = plasma, planned 0.05 mg/kg (actual 0.03 mg/kg)
[9] = plasma, planned 0.1 mg/kg (actual 0.07 mg/kg)
[10] = inhaled or intranasal, 0.02 mg/kg
[11] = New Zealand white, rabbit, plasma, inhaled or intranasal, 0.011 mg/kg
[12] = male, Wistar, rat, inhaled or intranasal, 0.4 mg/kg
[13] = male, Wistar, rat, po, 1.05 mg/kg
[14] = male, beagle, dog, plasma, inhaled or intranasal, 0.26 mg/kg
[15] = male, beagle, dog, plasma, po, 0.51 mg/kg

For `CN(C)CCC=C1c2ccccc2C=Cc2ccccc21` [Cyclobenzaprine hydrochloride, cyclobenzaprine hydrochloride], the “dose excreted in the urine as unchanged drug” value ([1]; study with 14C-labelled drug) is given as “about 1%”.
For `CN(C)CCC=C1c2ccccc2C=Cc2ccccc21` [cyclobenzaprine, 3-(5H-Dibenzo[a,d]cyclohepten-5-ylidene)-N,N-dimethyl-1-propanamine], the plasma clearance [1] is given as 0.7 L/min, the effective half-life ([1]; range 8-37 hours, n=18) is given as 18 h and the AUC(0-t) [2, 7] is given as 22.4 ± 10.1 ng·h/mL. The half-life ([2]; in vivo, planned 0.05 mg/kg (actual 0.03 mg/kg)) was 1.9 ± 0.3 h, the half-life ([2]; in vivo, planned 0.1 mg/kg (actual 0.07 mg/kg)) was 1.6 ± 0.2 h and the half-life [2, 7] was 2.2 ± 0.3 h. It also gave an AUC(0-t) [2, 8] of 4.8 ± 1.4 ng·h/mL, an AUC(0-t) [2, 9] of 10.6 ± 3 ng·h/mL and a Cmax [2, 8] of 4.6 ± 1.7 ng/mL. For the same molecule, the Cmax [2, 9] was 16.4 ± 11.6 ng/mL, the Cmax ([2]; plasma, planned 0.2 mg/kg (actual 0.14 mg/kg)) was 27.6 ± 26.4 ng/mL and the AUC(0-inf) [3, 10] was 2.59 ng·h/mL. It also gave an AUC(0-t) [3, 10] of 2.32 ng·h/mL, a Cmax [3, 10] of 2.83 ng/mL and a Tmax [3, 10] of 0.083 h. It also gave a half-life [3, 10] of 1.07 h, an AUC(0-inf) ([3]; po, 0.885 mg/kg) of 3.26 ng·h/mL and an AUC(0-t) ([3]; po, 0.885 mg/kg) of 2.54 ng·h/mL. For the same molecule, the Cmax ([3]; po, 0.885 mg/kg) was 1.2 ng/mL, the Tmax ([3]; po, 0.885 mg/kg) was 1 h and the half-life ([3]; po, 0.885 mg/kg) was 2.61 h. The AUC(0-inf) [4, 11] was 0.92 ng·h/mL, the AUC(0-t) [4, 11] was 0.52 ng·h/mL and the Cmax [4, 11] was 0.56 ng/mL. For the same molecule, the MRT inf [4, 11] was 2.43 h, the MRT last [4, 11] was 0.87 h and the Vd/F [4, 11] was 28.6 L/kg. For the same molecule, the “Cl—F—pred” value ([4]; intranasal, 0.011 mg/kg) was 199.56 mL/min/kg, the “HL—Lambda—z” value ([4]; intranasal, 0.011 mg/kg) was 1.65 h and the “DNAUC (AUC normalized at 1 mg/kg dose)” value ([4]; intranasal, 0.26 mg/kg) was 385.92. The “DNAUC (AUC normalized at 1 mg/kg dose)” value ([4]; male, Wistar, rat, inhaled or intranasal) was 130.85, the AUC(0-inf) [4, 12] was 52.3 ± 12.8 ng·h/mL and the AUC(0-t) [4, 12] was 51.2 ± 12.8 ng·h/mL. For the same molecule, the Cmax [4, 12] was 31.3 ± 10.1 ng/mL, the half-life [4, 12] was 2.79 ± 2.35 h and the “DNAUC (AUC normalized at 1 mg/kg dose)” value ([4]; male, Wistar, rat, po) was 3.11. It also gave an AUC(0-inf) [4, 13] of 3.27 ± 0.42 ng·h/mL, an AUC(0-t) [4, 13] of 2.98 ± 0.42 ng·h/mL and a Cmax [4, 13] of 1.74 ± 0.95 ng/mL. It also gave a half-life [4, 13] of 1.43 ± 0.33 h, an AUC(0-inf) [4, 14] of 103 ± 26.2 ng·h/mL and an AUC(0-t) [4, 14] of 100 ± 25.9 ng·h/mL. For the same molecule, the Cmax [4, 14] was 62.3 ± 13.8 ng/mL, the Tmax [4, 14] was 0.083 h and the half-life [4, 14] was 6.09 ± 2.27 h. It also gave an AUC(0-inf) [4, 15] of 7.58 ± 5.64 ng·h/mL, an AUC(0-t) [4, 15] of 7.03 ± 5.65 ng·h/mL and a Cmax [4, 15] of 1.61 ± 1.21 ng/mL. For the same molecule, the Tmax [4, 15] was 1.5 h, the half-life [4, 15] was 2.03 ± 0.64 h and the Plasma concentrations ([4]; oral, 0.442 mg/kg, n=4, rabbits) was “below the limit of quantification”. The “DNAUC (AUC normalized at 1 mg/kg dose)” value ([4]; oral, 0.51 mg/kg) was 13.52, the Tmax ([4]; rat, inhaled or intranasal, 0.4 mg/kg) was 0.083 h and the Tmax ([4]; rat, po, 1.05 mg/kg) was 0.5 (0.25-1.0) Hour. For the same molecule, the Bioavailability versus dose [5] was “Dose dependent linear bioavailability” and the stability towards oxidation [6] was “very unstable”.
